Assay in all cases: microbe, parasite or virus in culture
The test system of test [1] is Escherichia coli.
Description: In vitro minimum inhibitory concentration against Escherichia coli (DC0 parent organism).
The test system of test [2] is Staphylococcus aureus.
Description: The compound was tested for minimum inhibitory concentration in Staphylococcus aureus,147N penicillin sensitive Staphylococcus aureus
The subject of test [3] is Pseudomonas aeruginosa.
Description: Minimum inhibitory concentration in Pseudomonas aeruginosa,799WT parent organism
The subject of test [4] is Enterobacter cloacae.
Description: Minimum inhibitory concentration in Enterobacter cloacae, P99- inducible type 1 lactamase producer
Test [5] has as its system Enterobacter cloacae. This is another data set of the same source.
Description: Minimum inhibitory concentration in Enterobacter cloacae, P99+ constitutive depressed type 1 lactamase producer
The subject of test [6] is Providencia stuartii.
Description: Minimum inhibitory concentration in Pseudomonas stuartii, I+442019 inducible type 1 lactamase producer
The subject of test [7] is Providencia stuartii. The source holds these as a separate data set.
Description: Minimum inhibitory concentration in Pseudomonas stuartii, DR 442049 constitutive depressed type 1 lactamase producer
Test [8] concerns Citrobacter freundii.
Description: Minimum inhibitory concentration in Citrobacter freundii, I+382010 inducible type 1 lactamase producer
Test [9] relates to Pseudomonas aeruginosa. This is another data set of the same source.
Description: Minimum inhibitory concentration in Pseudomonas aeruginosa, 18SH constitutive depressed type 1 lactamase producer
Test [10] concerns Citrobacter freundii. The source holds these as a separate data set.
Description: Minimum inhibitory concentration in Citrobacter freundii, DR 382031 constitutive depressed type 1
For test [11], the system named is Pseudomonas aeruginosa. The source holds these as a separate data set.
Description: In vitro minimum inhibitory concentration against Pseudomonas aeruginosa (PU21).
For test [12], the system named is Enterobacter cloacae. The source holds these as a separate data set.
Description: Minimum inhibitory concentration in Enterobacter cloacae, DR 401108 constitutive depressed type 1 lactamase producer
Test [13] has as its system Escherichia coli. The source holds these as a separate data set.
Description: In vitro minimum inhibitory concentration against Escherichia coli (DC2 permeability mutant).
Test [14] has as its system Staphylococcus aureus. This is another data set of the same source.
Description: The compound was tested for minimum inhibitory concentration in Staphylococcus aureus Oxford penicillin sensitive Staphylococcus aureus
The test system of test [15] is Enterobacter cloacae. This is another data set of the same source.
Description: Minimum inhibitory concentration in Enterobacter cloacae, I+401029 inducible type 1 lactamase producer
In test [16] the test system is Pseudomonas aeruginosa. The source holds these as a separate data set.
Description: Minimum inhibitory concentration in Pseudomonas aeruginosa,799/61 permeability mutant
Test [17] has as its system Pseudomonas aeruginosa. The source holds these as a separate data set.
Description: Minimum inhibitory concentration in Pseudomonas aeruginosa, 18S inducible type 1 lactamase producer

Converted amounts (≈) assume the structure as drawn.

Consider `C=C(CO/N=C(\C(=O)N[C@@H]1C(=O)N2C(C(=O)O)=C(CNC(=O)c3cc(O)c(O)c(Br)c3)CSC12)c1csc(N)n1)C(=O)O` (some centres not stated), for which the MIC in test [1] came out at 0.008 µg/mL (≈ 0.0115 µM); in test [2] it was 16 µg/mL (≈ 22.9 µM); in [3] it was 0.008 µg/mL (≈ 0.0115 µM); in test [4] it was 0.06 µg/mL (≈ 0.086 µM); in test [5], 8 µg/mL (≈ 11.5 µM); in test [6], 0.03 µg/mL (≈ 0.043 µM). The MIC in test [7] is 2 µg/mL (≈ 2.87 µM); in test [8], 0.008 µg/mL (≈ 0.0115 µM); in [9] it was 0.05 µg/mL (≈ 0.0717 µM); in test [10], 16 µg/mL (≈ 22.9 µM); in [11], 0.03 µg/mL (≈ 0.043 µM); in test [12] it was greater than 32 µg/mL. Further, the MIC in test [13] was found to be 0.008 µg/mL (≈ 0.0115 µM); in test [14] it was 16 µg/mL (≈ 22.9 µM); in test [15], 0.06 µg/mL (≈ 0.086 µM); in test [16], 0.008 µg/mL (≈ 0.0115 µM); in [17], 0.008 µg/mL (≈ 0.0115 µM).

Consider `CC(C)(O/N=C(\C(=O)N[C@@H]1C(=O)N2C(C(=O)O)=C(CCNC(=O)Nc3ccc(O)c(O)c3)CSC12)c1csc(N)n1)C(=O)O` (some centres not stated), for which the MIC is 0.06 µg/mL (≈ 0.0924 µM) in [1]; 64 µg/mL (≈ 98.5 µM) in test [2]; 0.125 µg/mL (≈ 0.192 µM) in test [3]; 1 µg/mL (≈ 1.54 µM) in [4]; 16 µg/mL (≈ 24.6 µM) in test [5]; 2 µg/mL (≈ 3.08 µM) in test [6]. For the same compound, the MIC in [7] was 16 µg/mL (≈ 24.6 µM); in test [8] it was 0.25 µg/mL (≈ 0.385 µM); in [9], 0.125 µg/mL (≈ 0.192 µM); in [10], 8 µg/mL (≈ 12.3 µM); in [11], 0.125 µg/mL (≈ 0.192 µM); in test [12] it was 64 µg/mL (≈ 98.5 µM). Also, the MIC in test [13] stood at 0.015 µg/mL (≈ 0.0231 µM); in [14] it was 64 µg/mL (≈ 98.5 µM); in test [15] it was 0.5 µg/mL (≈ 0.77 µM); in test [16], 0.125 µg/mL (≈ 0.192 µM); in test [17], 0.125 µg/mL (≈ 0.192 µM).

As to `CC(C)(O/N=C(/C(=O)N[C@@H]1C(=O)N2C(C(=O)O)=C(COC(=O)c3ccc(O)c(O)c3)CSC12)c1csc(N)n1)C(=O)O` (some centres not stated), the MIC in test [1] was 0.008 µg/mL (≈ 0.0129 µM); in [2], 8 µg/mL (≈ 12.9 µM); in test [3] it was 0.008 µg/mL (≈ 0.0129 µM); in test [4], 0.5 µg/mL (≈ 0.804 µM); in test [5], 4 µg/mL (≈ 6.43 µM); in test [6] it was 0.125 µg/mL (≈ 0.201 µM). Besides, the MIC is 4 µg/mL (≈ 6.43 µM) in [7]; 0.03 µg/mL (≈ 0.0483 µM) in [8]; 0.125 µg/mL (≈ 0.201 µM) in test [9]; 8 µg/mL (≈ 12.9 µM) in test [10]; 0.3 µg/mL (≈ 0.483 µM) in test [11]; greater than 128 µg/mL in [12]. Also, the MIC in [13] was found to be 0.008 µg/mL (≈ 0.0129 µM); in test [14] it was 4 µg/mL (≈ 6.43 µM); in test [15], 0.06 µg/mL (≈ 0.0965 µM); in test [16], 0.008 µg/mL (≈ 0.0129 µM); in test [17], 0.008 µg/mL (≈ 0.0129 µM).

On to `CCOC(=O)c1nc2cc(O)c(O)cc2nc1C(=O)NCC1=C(C(=O)O)N2C(=O)[C@@H](NC(=O)/C(=N\OC(C)(C)C(=O)O)c3csc(N)n3)C2SC1` (some centres not stated), for which the MIC in test [3] worked out at 0.008 µg/mL (≈ 0.0107 µM); in test [4], 0.03 µg/mL (≈ 0.0403 µM); in [5] it was 0.06 µg/mL (≈ 0.0806 µM); in [6], 0.06 µg/mL (≈ 0.0806 µM); in test [7], 2 µg/mL (≈ 2.69 µM); in test [8] it was 0.008 µg/mL (≈ 0.0107 µM). The MIC in test [9] is 0.015 µg/mL (≈ 0.0201 µM); in test [10], 0.06 µg/mL (≈ 0.0806 µM); in test [12] it was 0.5 µg/mL (≈ 0.671 µM); in test [15], 0.03 µg/mL (≈ 0.0403 µM); in [16], 0.008 µg/mL (≈ 0.0107 µM); in [17] it was 0.008 µg/mL (≈ 0.0107 µM).

With `Nc1nc(/C(=N/OC(C(=O)O)c2ccccc2)C(=O)N[C@@H]2C(=O)N3C(C(=O)O)=C(CNC(=O)c4cc(O)c(O)c(Br)c4)CSC23)cs1` (some centres not stated), the MIC in [1] turned out to be 0.008 µg/mL (≈ 0.0107 µM); in test [2], 16 µg/mL (≈ 21.4 µM); in test [3], 0.015 µg/mL (≈ 0.0201 µM); in [4] it was 0.06 µg/mL (≈ 0.0803 µM); in [5], 2 µg/mL (≈ 2.68 µM); in [6], 0.06 µg/mL (≈ 0.0803 µM). Besides, the MIC in [7] was 0.25 µg/mL (≈ 0.334 µM); in test [8] it was 0.008 µg/mL (≈ 0.0107 µM); in test [9], 0.03 µg/mL (≈ 0.0401 µM); in test [10] it was 4 µg/mL (≈ 5.35 µM); in test [11], 0.015 µg/mL (≈ 0.0201 µM); in test [12], greater than 128 µg/mL. Moreover, the MIC in test [13] is 0.008 µg/mL (≈ 0.0107 µM); in [14], 16 µg/mL (≈ 21.4 µM); in [15] it was 0.03 µg/mL (≈ 0.0401 µM); in test [16], 0.008 µg/mL (≈ 0.0107 µM); in test [17], 0.008 µg/mL (≈ 0.0107 µM).

As to `CCO/N=C(\C(=O)N[C@@H]1C(=O)N2C(C(=O)O)=C(CNC(=O)c3cn(CC)c4cc(O)c(O)cc4c3=O)CSC12)c1csc(N)n1` (some centres not stated), the MIC in [1] stood at 0.008 µg/mL (≈ 0.0122 µM); in test [2] it was 1 µg/mL (≈ 1.52 µM); in test [3] it was 0.015 µg/mL (≈ 0.0228 µM); in test [4], 0.03 µg/mL (≈ 0.0456 µM); in test [5], 1 µg/mL (≈ 1.52 µM); in test [6] it was 0.06 µg/mL (≈ 0.0912 µM). Moreover, the MIC in test [7] is 2 µg/mL (≈ 3.04 µM); in test [8], 0.008 µg/mL (≈ 0.0122 µM); in test [9] it was 0.25 µg/mL (≈ 0.38 µM); in [10] it was 0.5 µg/mL (≈ 0.76 µM); in test [11], 0.06 µg/mL (≈ 0.0912 µM); in test [12], 32 µg/mL (≈ 48.7 µM). For the same compound, the MIC was determined as 0.008 µg/mL (≈ 0.0122 µM) in test [13]; 2 µg/mL (≈ 3.04 µM) in [14]; 0.015 µg/mL (≈ 0.0228 µM) in test [15]; 0.008 µg/mL (≈ 0.0122 µM) in test [16]; 0.008 µg/mL (≈ 0.0122 µM) in test [17].

For the origin of these results see ChEMBL document CHEMBL1126299, “Synthesis and structure-activity relationships of cephalosporins with C-3' catechol-containing residues” (J Med Chem, 1992).
